Measured values published in article PMC9607081 (Membranes, 2022).
Residue numbers refer to the chain shown, from its start. Read-outs that look alike come from different tables or passages of the source.

Key:
Format in all cases: cell-based
human GlyR α1 subunit WT = target: T1, human GlyR α1 subunit WT (Homo sapiens, UniProt P23415); assay: Two-electrode voltage clamp of Xenopus oocytes expressing WT GlyR; settings: for nH (Hill coefficient): Table 1, n = 5; for EC50: Table 1, −60 mV; for % ImaxTau /ImaxGly: Tau maximal current relative to Gly maximal current
T1 construct: expressed in transfected cells; host or cells: Xenopus laevis oocytes injected with receptor mRNA
T1 sequence (P23415 29-457): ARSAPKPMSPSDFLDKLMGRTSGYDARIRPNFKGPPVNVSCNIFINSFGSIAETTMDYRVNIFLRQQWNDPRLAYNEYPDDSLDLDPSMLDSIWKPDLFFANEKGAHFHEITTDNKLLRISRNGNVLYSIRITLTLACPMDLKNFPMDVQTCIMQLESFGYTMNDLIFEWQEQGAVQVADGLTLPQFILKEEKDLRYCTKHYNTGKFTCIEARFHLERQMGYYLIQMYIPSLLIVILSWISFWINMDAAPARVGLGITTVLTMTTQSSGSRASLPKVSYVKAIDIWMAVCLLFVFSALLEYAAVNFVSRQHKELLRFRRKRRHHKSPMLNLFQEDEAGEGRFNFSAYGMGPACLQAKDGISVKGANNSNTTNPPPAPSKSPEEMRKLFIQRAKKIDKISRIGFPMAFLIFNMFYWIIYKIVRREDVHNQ
Procedure: (§1) Injection volumes were 50–100 nL per cell.
(§2) All experiments were performed at 22–25 °C. […] The holding potential was −60 mV unless otherwise specified.

[1] = target: T2, human GlyR α1 subunit P230A (Homo sapiens, UniProt P23415, P258A); assay: Two-electrode voltage clamp of Xenopus oocytes expressing P230A GlyR; settings: for nH (Hill coefficient): Table 1, n = 5; for EC50: Table 1, −60 mV
T2 construct: expressed in transfected cells; host or cells: Xenopus laevis oocytes injected with receptor mRNA
T2 sequence (P23415 29-457 P258A): T1 sequence (P23415 29-457) with P230A
Procedure: as §1, §2

[2] = target: T3, human GlyR α1 subunit P96A (Homo sapiens, UniProt P23415, P124A); assay: Two-electrode voltage clamp of Xenopus oocytes expressing P96A GlyR; settings: for nH (Hill coefficient): Table 1, n = 5; for EC50: Table 1, −60 mV
T3 construct: expressed in transfected cells; host or cells: Xenopus laevis oocytes injected with receptor mRNA
T3 sequence (P23415 29-457 P124A): T1 sequence (P23415 29-457) with P96A
Procedure: as §1, §2

[3] = target: T4, human GlyR α1 subunit P146 (CysL) substituted with 2MeP (Homo sapiens, UniProt P23415, P174X); assay: TEVC, oocytes, nonsense suppression, P146 2MeP; settings: for EC50: n = 3
T4 sequence (P23415 29-457 P174X): T1 sequence (P23415 29-457) with P146X
Procedure: The cDNA for the human GlyR α1 subunit was in pGEMHE (ThermoFischer Scientific, Bishops Stortford, UK). Site-directed mutagenesis was performed using QuikChange (Agilent Technologies, Milton Keynes, UK) to generate the appropriate codon. For non-canonical amino acid mutants and conventional mutants generated by nonsense suppression, the site of interest was mutated to the TAG stop codon. Receptor mRNA was then prepared by in vitro runoff transcription using the Ambion T7 mMessage mMachine kit (ThermoFischer Scientific, Bishops Stortford, UK). Noncanonical amino acids were ligated to tRNA as previously described.
Stage V-VI oocytes of Xenopus laevis were harvested and injected with RNAs as described previously. For nonsense suppression experiments, each cell was injected with 50–100 ng each of receptor mRNA and tRNA charged with the appropriate Pro analogue ~48 h before recording. For wild type and conventional mutants, each cell received a single injection of 10–25 ng of receptor mRNA ~24 h before recording. Injection volumes were 50–100 nL per cell.
As a negative control for suppression experiments at each site, unligated tRNA was co-injected with mRNA in the same manner as charged tRNA. […] Pro recovery (injecting tRNA charged with Pro to regenerate a wild type channel via nonsense suppression) was used alongside Pro analogues as a positive control.
Two-electrode voltage clamping of Xenopus oocytes was performed using standard electrophysiological procedures as previously, using an OpusXpress system (Axon Instruments, Inc., Union City, CA, USA). All experiments were performed at 22–25 °C. […] The holding potential was −60 mV unless otherwise specified. […] Data were analysed using Prism (GraphPad Software Inc., San Diego, CA, USA), fitting concentration-response data to the four-parameter logistic equation. Statistical analysis was performed using ANOVA with a Dunnett’s multiple comparisons post test.

[4] = target: T5, human GlyR α1 subunit P146 (CysL) substituted with Pro (Homo sapiens, UniProt P23415); assay: TEVC, oocytes, nonsense suppression, P146 Pro recovery; settings: for EC50: Table 3, nonsense suppression
T5 construct: expressed in transfected cells; host or cells: Xenopus laevis oocytes injected with receptor mRNA
T5 sequence (P23415 29-457): T1 sequence (P23415 29-457)
Procedure: Injection volumes were 50–100 nL per cell. […] The holding potential was −60 mV unless otherwise specified.

[5] = n = 5, read-out: pEC50 (converted)

## NCC(=O)O [Gly, glycine]
Human GlyR α1 subunit WT
  nH (Hill coefficient): 2.3 ± 0.5
[1]
  nH (Hill coefficient): 2.2 ± 0.4
[2]
  nH (Hill coefficient): 2.2 ± 0.3
[3]; Table 2, n = 6
  nH: 2.2 ± 0.5
[3]; Table 3, n = 3
  nH: 3.6 ± 0.2
[4]; Table 2, n = 6
  nH: 2.5 ± 0.4
[4]; Table 3, n = 4
  nH: 3.2 ± 1.6

## NCCS(=O)(=O)O [Tau, taurine]
Human GlyR α1 subunit WT
  nH (Hill coefficient): 1.7 ± 0.3
Human GlyR α1 subunit WT; n = 5, read-out: EC50
  EC50: 583 µM
Human GlyR α1 subunit WT; [5]
  EC50: 582 µM
Human GlyR α1 subunit WT; n = 5
  % ImaxTau /ImaxGly: 50 ± 4%
Human GlyR α1 subunit WT; n = 5, listed as Taurine
  % ImaxTau /ImaxGly: 50%
[1]
  nH (Hill coefficient): 2.2 ± 0.4
[1]; n = 5, read-out: EC50
  EC50: 1190 µM
[1]; [5]
  EC50: 1190 µM
[1]; n = 5
  % ImaxTau /ImaxGly: 20 ± 1 %
[2]
  nH (Hill coefficient): 1.9 ± 0.2
[2]; n = 5, read-out: EC50
  EC50: 2440 µM
[2]; [5]
  EC50: 2440 µM
[2]; n = 5
  % ImaxTau /ImaxGly: 36 ± 2 %
[3]; EC50, Table 3, nonsense suppression
  EC50: 3180 µM
[3]; Table 3, n = 3
  nH: 2.4 ± 0.6
[3]; Table 3, n = 3, read-out: % ImaxTau /ImaxGly
  Emax: 18 ± 2%
[3]; pEC50, Table 3, nonsense suppression
  EC50: 3180 µM
[4]; Table 3, n = 4
  % ImaxTau /ImaxGly: 43 ± 5%
  nH: 1.5 ± 0.3
[4]; n = 4, read-out: EC50
  EC50: 1030 µM
[4]; n = 4, read-out: pEC50 (converted)
  EC50: 1040 µM
